Data taken from publication PMC8138313, “Identification, Selection and Immune Assessment of Liver Stage CD8 T Cell Epitopes From Plasmodium falciparum” (Frontiers in Immunology, 2021).
Where a SMILES comes first, the peptide text is derived from it.

Assays:
Assay in all cases: HLA class I binding assay (cell-free competition, fluorescence polarization)
HLA A*0201 = HLA A*0201 (Homo sapiens, UniProt P04439, D140Y/D185E/D98H/E176V/E277Q/G131W/G231S/I119V/I121R/I166T/I218V/L300P/L318F/N151K/N90K/P208A/P217A/Q86G/Q94H/R138H/R169H/T345S)
HLA A*0101 = HLA A*0101 (Homo sapiens, UniProt P04439, A114D/A174V/A182V/D101N/D185E/E176A/E190D/L180R/Q94H/R68K/S129P/T187R/V100A/V91M/W191G)
HLA A*0301 = HLA A*0301 (Homo sapiens, UniProt P04439)

SMILES | IC50 (HLA A*0201) | IC50 (HLA A*0101) | other results
CC[C@H](C)[C@H](NC(=O)CNC(=O)[C@H](Cc1ccc(O)cc1)NC(=O)[C@H](Cc1c[nH]cn1)NC(=O)[C@@H](NC(=O)[C@@H](N)C(C)C)[C@@H](C)CC)C(=O)N[C@@H](CC(N)=O)C(=O)N1CCC[C@H]1C(=O)N[C@H](C(=O)O)C(C)C (H-VIHYGINPV-OH) | 1.7 µM |  | 
C[C@H](NC(=O)[C@H](CO)NC(=O)[C@@H](N)CO)C(=O)N[C@@H](CC(N)=O)C(=O)N[C@@H](CC(=O)O)C(=O)N[C@@H](CCC(=O)O)C(=O)N[C@@H](CCC(N)=O)C(=O)N[C@@H](CO)C(=O)N[C@@H](Cc1ccc(O)cc1)C(=O)O (H-SSANDEQSY-OH) |  | 65 µM | 
CC[C@H](C)[C@H](NC(=O)[C@H](CC(=O)O)NC(=O)[C@H](CC(N)=O)NC(=O)[C@H](CC(N)=O)NC(=O)[C@H](CC(C)C)NC(=O)[C@@H](N)Cc1c[nH]c2ccccc12)C(=O)N[C@@H](Cc1ccc(O)cc1)C(=O)N[C@@H](CC(N)=O)C(=O)N[C@H](C(=O)O)C(C)C (H-WLNNDIYNV-OH) | 0.16 µM |  | 
CC[C@H](C)[C@H](NC(=O)[C@H](CC(N)=O)NC(=O)[C@@H](NC(=O)[C@H](CCSC)NC(=O)[C@@H](N)CO)[C@@H](C)O)C(=O)N1CCC[C@H]1C(=O)N[C@@H](CCSC)C(=O)N[C@@H](CC(N)=O)C(=O)N[C@H](C(=O)O)C(C)C (H-SMTNIPMNV-OH) | 0.244 µM |  | 
CC[C@H](C)[C@H](NC(=O)[C@@H](NC(=O)[C@@H](NC(=O)[C@H](CCCCN)NC(=O)[C@H](CC(N)=O)NC(=O)[C@H](CCCCN)NC(=O)[C@H](CC(N)=O)NC(=O)[C@@H](NC(=O)[C@@H](NC(=O)[C@@H](N)Cc1ccc(O)cc1)[C@@H](C)CC)[C@@H](C)O)C(C)C)[C@@H](C)O)C(=O)O (H-YITNKNKVTI-OH; N-terminus assumed) | > 1000 µM |  | 
CC(C)C[C@H](NC(=O)[C@@H](N)CC(N)=O)C(=O)N[C@@H](Cc1ccccc1)C(=O)N[C@@H](CCC(=O)O)C(=O)N[C@@H](Cc1c[nH]c2ccccc12)C(=O)N[C@@H](CO)C(=O)N[C@@H](CCCCN)C(=O)N[C@H](C(=O)N[C@H](C(=O)O)C(C)C)[C@@H](C)O (H-NLFEWSKTV-OH) | 1.62 µM |  | 
CC(C)[C@H](NC(=O)[C@@H](NC(=O)[C@@H](N)CC(N)=O)[C@@H](C)O)C(=O)N[C@@H](CCCCN)C(=O)N[C@@H](CS)C(=O)N1CCC[C@H]1C(=O)N[C@@H](CC(N)=O)C(=O)N[C@@H](CC(=O)O)C(=O)N[C@@H](Cc1ccc(O)cc1)C(=O)O (H-NTVKCPNDY-OH) |  | 282 µM | 
CC[C@H](C)[C@H](NC(=O)[C@H](CC(=O)O)NC(=O)[C@@H](NC(=O)[C@H](CO)NC(=O)[C@@H](NC(=O)[C@@H](N)CC(C)C)[C@@H](C)CC)[C@@H](C)O)C(=O)N[C@H](C(=O)N[C@@H](Cc1ccccc1)C(=O)N[C@@H](CC(C)C)C(=O)O)[C@@H](C)CC (H-LISTDIIFL-OH) | 0.614 µM |  | 
CC[C@H](C)[C@H](NC(=O)[C@@H](N)CO)C(=O)N[C@@H](CO)C(=O)N[C@@H](CC(=O)O)C(=O)N[C@@H](Cc1ccc(O)cc1)C(=O)N[C@H](C(=O)N[C@@H](CCCCN)C(=O)N[C@@H](CO)C(=O)N[C@@H](CC(C)C)C(=O)O)[C@@H](C)O (H-SISDYTKSL-OH) | 352 µM |  | 
CC(C)[C@H](NC(=O)[C@H](CCC(=O)O)NC(=O)[C@H](Cc1ccccc1)NC(=O)[C@@H](NC(=O)[C@H](CC(=O)O)NC(=O)[C@H](CC(=O)O)NC(=O)[C@H](CCC(=O)O)NC(=O)[C@@H](N)CCCCN)[C@@H](C)O)C(=O)N[C@@H](Cc1ccc(O)cc1)C(=O)O (H-KEDDTFEVY-OH; N-terminus assumed) |  | > 1000 µM | 
CC[C@H](C)[C@H](NC(=O)[C@H](CO)NC(=O)[C@H](CCCCN)NC(=O)[C@H](CC(N)=O)NC(=O)[C@H](CCC(N)=O)NC(=O)[C@H](Cc1ccccc1)NC(=O)[C@H](Cc1ccccc1)NC(=O)[C@H](CC(C)C)NC(=O)[C@@H](N)CC(N)=O)C(=O)O (H-NLFFQNKSI-OH; N-terminus assumed) | > 1000 µM |  | 
CSCC[C@H](NC(=O)[C@H](CC(N)=O)NC(=O)[C@H](CC(N)=O)NC(=O)[C@H](CCCNC(=N)N)NC(=O)[C@H](Cc1ccccc1)NC(=O)[C@H](CC(N)=O)NC(=O)[C@H](CC(N)=O)NC(=O)[C@@H](N)CC(N)=O)C(=O)N[C@@H](Cc1ccc(O)cc1)C(=O)O (H-NNNFRNNMY-OH; N-terminus assumed) |  | > 1000 µM | 
CC(C)C[C@H](NC(=O)[C@H](CC(N)=O)NC(=O)[C@H](C)NC(=O)[C@H](C)NC(=O)[C@H](CCCCN)NC(=O)[C@H](CCC(N)=O)NC(=O)[C@H](Cc1ccccc1)NC(=O)[C@H](CC(C)C)NC(=O)[C@@H](N)CC(C)C)C(=O)O (H-LLFQKAANL-OH) | 1.88 µM |  | 
CC[C@H](C)[C@H](NC(=O)CN)C(=O)N[C@@H](C)C(=O)N[C@@H](CC(N)=O)C(=O)N[C@@H](CC(=O)O)C(=O)N[C@@H](CC(C)C)C(=O)N[C@@H](CO)C(=O)N[C@H](C(=O)N[C@@H](CC(C)C)C(=O)O)[C@@H](C)O (H-GIANDLSTL-OH) | 5.73 µM |  | 
CC(C)C[C@H](NC(=O)[C@H](CC(=O)O)NC(=O)[C@H](CC(=O)O)NC(=O)[C@H](CO)NC(=O)[C@@H](N)CC(=O)O)C(=O)N[C@@H](CCCCN)C(=O)N[C@@H](CCC(=O)O)C(=O)N[C@@H](CO)C(=O)N[C@@H](Cc1ccc(O)cc1)C(=O)O (H-DSDDLKESY-OH) |  | 2.6 µM | 
CC(C)C[C@H](NC(=O)[C@H](CC(C)C)NC(=O)[C@H](CC(N)=O)NC(=O)[C@H](CC(C)C)NC(=O)[C@H](CC(C)C)NC(=O)[C@@H](N)Cc1ccccc1)C(=O)N[C@@H](CC(N)=O)C(=O)N[C@@H](CCC(=O)O)C(=O)N[C@@H](Cc1c[nH]cn1)C(=O)N[C@H](C(=O)O)C(C)C (H-FLLNLLNEHV-OH) | 1.68 µM |  | 
CC[C@H](C)[C@H](NC(=O)[C@@H](N)CC(C)C)C(=O)N[C@@H](CO)C(=O)N[C@@H](CCCNC(=N)N)C(=O)N[C@@H](CC(C)C)C(=O)N[C@H](C(=O)N[C@@H](CC(C)C)C(=O)N[C@@H](CCCCN)C(=O)N[C@@H](Cc1ccc(O)cc1)C(=O)O)[C@@H](C)O (H-LISRLTLKY-OH) |  | 11.5 µM | 
C[C@@H](O)[C@H](N)C(=O)N[C@@H](CO)C(=O)N[C@@H](CCCCN)C(=O)N[C@@H](CCC(N)=O)C(=O)NCC(=O)N[C@@H](CO)C(=O)N[C@@H](CO)C(=O)N[C@@H](CC(N)=O)C(=O)N[C@@H](CCCCN)C(=O)N[C@@H](Cc1ccc(O)cc1)C(=O)O (H-TSKQGSSNKY-OH; N-terminus assumed) |  | > 1000 µM | 
CC[C@H](C)[C@H](NC(=O)[C@H](CC(C)C)NC(=O)[C@H](CC(=O)O)NC(=O)[C@H](CC(C)C)NC(=O)[C@H](CCCCN)NC(=O)[C@H](CC(=O)O)NC(=O)[C@H](CO)NC(=O)[C@@H](N)CC(N)=O)C(=O)N[C@@H](Cc1ccc(O)cc1)C(=O)O (H-NSDKLDLIY-OH) |  | 0.875 µM | 
CC(C)C[C@H](NC(=O)[C@H](C)NC(=O)[C@H](CO)NC(=O)[C@@H](NC(=O)[C@H](CCCCN)NC(=O)[C@H](CC(=O)O)NC(=O)[C@H](CCCNC(=N)N)NC(=O)[C@@H](N)CS)[C@@H](C)O)C(=O)N[C@@H](Cc1ccc(O)cc1)C(=O)O (H-CRDKTSALY-OH; N-terminus assumed) |  | > 1000 µM | 
NCCCC[C@H](NC(=O)[C@H](CO)NC(=O)CN)C(=O)N[C@@H](CC(N)=O)C(=O)N[C@@H](CC(=O)O)C(=O)N[C@@H](Cc1ccccc1)C(=O)N[C@@H](CCC(N)=O)C(=O)N[C@@H](CCC(N)=O)C(=O)N[C@@H](CCC(N)=O)C(=O)N[C@@H](Cc1ccc(O)cc1)C(=O)O (H-GSKNDFQQQY-OH; N-terminus assumed) |  | > 1000 µM | 
CC[C@H](C)[C@H](N)C(=O)N[C@@H](CC(C)C)C(=O)N[C@H](C(=O)N[C@@H](CO)C(=O)N[C@@H](CCCNC(=N)N)C(=O)N[C@@H](CC(C)C)C(=O)N[C@H](C(=O)N[C@@H](CC(C)C)C(=O)N[C@@H](CCCCN)C(=O)O)[C@@H](C)O)[C@@H](C)CC (H-ILISRLTLK-OH) |  |  | IC50 (HLA A*0301): 0.22 µM
CSCC[C@H](N)C(=O)N[C@@H](CC(=O)O)C(=O)N[C@@H](Cc1ccccc1)C(=O)N1CCC[C@H]1C(=O)N[C@@H](CCCCN)C(=O)N[C@@H](CC(C)C)C(=O)N[C@@H](CC(C)C)C(=O)N[C@@H](CC(N)=O)C(=O)N[C@@H](CCCCN)C(=O)O (H-MDFPKLLNK-OH) |  |  | IC50 (HLA A*0301): 2.08 µM
CC[C@H](C)[C@H](NC(=O)[C@H](CC(N)=O)NC(=O)[C@H](CCC(=O)O)NC(=O)[C@@H](NC(=O)[C@H](CC(N)=O)NC(=O)[C@H](CO)NC(=O)[C@H](CO)NC(=O)[C@@H](N)CC(C)C)[C@@H](C)CC)C(=O)N[C@@H](Cc1ccc(O)cc1)C(=O)O (H-LSSNIENIY-OH) |  | 29.6 µM | 
CC(C)C[C@H](NC(=O)[C@H](CC(=O)O)NC(=O)[C@H](CC(C)C)NC(=O)[C@H](CO)NC(=O)[C@@H]1CCCN1C(=O)[C@H](CCCCN)NC(=O)[C@H](CC(N)=O)NC(=O)[C@H](CC(C)C)NC(=O)[C@H](CC(C)C)NC(=O)[C@@H](N)CCCCN)C(=O)O (H-KLLNKPSLDL-OH) | 4.26 µM |  | IC50 (HLA A*0301): 2.36 µM
CC(C)C[C@H](NC(=O)[C@H](CC(N)=O)NC(=O)[C@H](CC(C)C)NC(=O)[C@@H](N)CC(N)=O)C(=O)N[C@@H](CS)C(=O)NCC(=O)N[C@@H](CCCCN)C(=O)N[C@@H](Cc1ccc(O)cc1)C(=O)N[C@H](C(=O)N[C@@H](CCCCN)C(=O)O)[C@@H](C)O (H-NLNLCGKYTK-OH; N-terminus assumed) |  |  | IC50 (HLA A*0301): > 1000 µM
CC[C@H](C)[C@H](N)C(=O)N[C@@H](CC(C)C)C(=O)N[C@@H](Cc1ccc(O)cc1)C(=O)N[C@@H](CCCCN)C(=O)N[C@@H](CC(N)=O)C(=O)N[C@H](C(=O)N[C@@H](CC(=O)O)C(=O)N[C@@H](CS)C(=O)N[C@H](C(=O)O)C(C)C)[C@@H](C)CC (H-ILYKNIDCV-OH) | 1.4 µM |  | 
CC[C@H](C)[C@H](NC(=O)[C@H](CC(N)=O)NC(=O)[C@H](CCC(N)=O)NC(=O)[C@H](CCC(N)=O)NC(=O)[C@H](Cc1ccc(O)cc1)NC(=O)[C@H](CCSC)NC(=O)[C@@H](N)CC(N)=O)C(=O)N1CCC[C@H]1C(=O)N[C@@H](CC(C)C)C(=O)O (H-NMYQQNIPL-OH) | 331 µM |  | 
